Here are results for four compounds from ChEMBL document CHEMBL3779847, “Altered activity profile of a tertiary silanol analog of multi-targeting nuclear receptor modulator T0901317” (Bioorg Med Chem Lett, 2016).

A word on the logP: it is the decadic logarithm of the partition coefficient of the neutral form, usually between octanol and water. A low value points to lower lipophilicity. As usually defined, the EC50 is the concentration at which the effect is half-maximal. In general, IC50 refers to the concentration needed to halve the response being measured.

Data set [1] is described as follows: Octanol-water partition coefficient, log P of the compound by HPLC method. Format: physicochemical.
Data set [2] concerns the target T1, Oxysterols receptor LXR-alpha (Homo sapiens, UniProt Q13133).
T1 sequence (Q13133 whole entry): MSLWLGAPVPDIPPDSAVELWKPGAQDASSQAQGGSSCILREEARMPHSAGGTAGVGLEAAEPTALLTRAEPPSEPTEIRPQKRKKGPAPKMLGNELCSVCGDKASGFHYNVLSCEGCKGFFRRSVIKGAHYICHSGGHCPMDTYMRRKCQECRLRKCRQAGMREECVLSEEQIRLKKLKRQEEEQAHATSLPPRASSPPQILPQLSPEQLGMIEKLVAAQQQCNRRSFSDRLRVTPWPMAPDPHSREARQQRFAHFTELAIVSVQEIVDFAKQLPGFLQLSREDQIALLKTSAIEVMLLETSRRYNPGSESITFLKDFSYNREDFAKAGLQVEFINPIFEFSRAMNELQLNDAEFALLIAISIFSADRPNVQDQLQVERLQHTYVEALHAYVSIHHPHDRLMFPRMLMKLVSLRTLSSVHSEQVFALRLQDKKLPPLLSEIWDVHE
The data set is described as follows: Agonist activity at human LXRalpha transfected in HEK293 cells after 24 hrs by luciferase reporter gene assay. Format: cell-based. In general terms: In a reporter assay the amount or activity of a reporter protein is the signal.

In data set [3] the target is T2, Oxysterols receptor LXR-beta (Homo sapiens, UniProt P55055).
T2 sequence (P55055 whole entry): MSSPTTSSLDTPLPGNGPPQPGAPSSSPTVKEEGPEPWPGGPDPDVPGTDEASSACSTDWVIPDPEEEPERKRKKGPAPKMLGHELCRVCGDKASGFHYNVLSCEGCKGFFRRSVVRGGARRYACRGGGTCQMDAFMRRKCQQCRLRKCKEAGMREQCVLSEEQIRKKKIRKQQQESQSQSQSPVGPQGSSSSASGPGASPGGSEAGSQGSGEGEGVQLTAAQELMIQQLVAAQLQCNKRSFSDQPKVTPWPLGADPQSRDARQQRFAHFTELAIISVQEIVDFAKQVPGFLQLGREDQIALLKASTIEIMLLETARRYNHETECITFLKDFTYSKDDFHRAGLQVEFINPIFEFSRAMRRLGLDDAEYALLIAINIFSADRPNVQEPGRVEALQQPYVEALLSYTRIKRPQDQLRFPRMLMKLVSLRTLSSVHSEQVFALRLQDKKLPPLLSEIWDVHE
The data set is described as follows: Agonist activity at human LXRbeta transfected in HEK293 cells after 24 hrs by luciferase reporter gene assay. Format: cell-based.

The target of data set [4] is T3, Nuclear receptor subfamily 1 group I member 2 (Homo sapiens, UniProt O75469).
T3 sequence (O75469 whole entry): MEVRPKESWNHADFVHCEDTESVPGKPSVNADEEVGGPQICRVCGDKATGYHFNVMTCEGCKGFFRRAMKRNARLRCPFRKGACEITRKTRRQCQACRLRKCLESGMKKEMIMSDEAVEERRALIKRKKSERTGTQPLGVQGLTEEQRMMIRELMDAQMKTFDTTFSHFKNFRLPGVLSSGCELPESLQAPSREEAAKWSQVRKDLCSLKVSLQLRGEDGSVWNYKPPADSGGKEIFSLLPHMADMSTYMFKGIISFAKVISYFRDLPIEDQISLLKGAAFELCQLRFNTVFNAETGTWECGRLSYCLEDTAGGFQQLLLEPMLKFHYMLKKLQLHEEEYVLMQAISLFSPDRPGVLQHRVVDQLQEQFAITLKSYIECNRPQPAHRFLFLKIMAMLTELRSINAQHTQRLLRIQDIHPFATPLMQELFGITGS
The data set is described as follows: Agonist activity at human PXR transfected in HEK293 cells after 24 hrs by luciferase reporter gene assay. Format: cell-based.

Data set [5] has as its target T4, Nuclear receptor ROR-alpha (Homo sapiens, UniProt P35398).
T4 sequence (P35398 whole entry): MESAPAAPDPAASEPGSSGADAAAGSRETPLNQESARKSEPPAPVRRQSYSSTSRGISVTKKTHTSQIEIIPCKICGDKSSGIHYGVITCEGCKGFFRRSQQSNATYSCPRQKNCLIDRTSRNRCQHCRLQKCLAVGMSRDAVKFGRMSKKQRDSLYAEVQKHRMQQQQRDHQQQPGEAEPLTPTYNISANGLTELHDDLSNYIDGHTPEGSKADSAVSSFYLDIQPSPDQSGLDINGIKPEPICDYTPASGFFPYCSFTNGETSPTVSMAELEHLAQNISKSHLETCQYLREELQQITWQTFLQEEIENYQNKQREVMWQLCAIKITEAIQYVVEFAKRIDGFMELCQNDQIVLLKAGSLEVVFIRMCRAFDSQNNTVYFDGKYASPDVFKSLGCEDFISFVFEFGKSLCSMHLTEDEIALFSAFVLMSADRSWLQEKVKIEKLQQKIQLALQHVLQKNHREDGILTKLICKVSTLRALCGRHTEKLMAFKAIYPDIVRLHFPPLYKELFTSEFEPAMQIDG
As to the kind of experiment: Inverse agonist activity at human RORalpha transfected in HEK293 cells after 24 hrs by beta galactosidase luciferase reporter gene assay. The format is cell-based.

The target of data set [6] is T5, Nuclear receptor ROR-beta (Homo sapiens, UniProt Q92753).
T5 sequence (Q92753 whole entry): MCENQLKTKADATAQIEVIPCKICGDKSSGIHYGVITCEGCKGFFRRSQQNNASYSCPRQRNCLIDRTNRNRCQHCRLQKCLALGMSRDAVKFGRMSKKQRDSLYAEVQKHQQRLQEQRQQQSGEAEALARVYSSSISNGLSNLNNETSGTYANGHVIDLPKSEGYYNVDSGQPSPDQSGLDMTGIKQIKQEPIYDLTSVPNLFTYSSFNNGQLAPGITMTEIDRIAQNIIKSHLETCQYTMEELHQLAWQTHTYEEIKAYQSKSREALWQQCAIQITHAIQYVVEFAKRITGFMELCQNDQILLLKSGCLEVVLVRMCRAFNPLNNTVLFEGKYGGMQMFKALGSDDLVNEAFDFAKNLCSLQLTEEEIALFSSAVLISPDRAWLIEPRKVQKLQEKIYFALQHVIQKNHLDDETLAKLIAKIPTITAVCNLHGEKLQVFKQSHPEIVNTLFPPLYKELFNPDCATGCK
As to the kind of experiment: Inverse agonist activity at human RORbeta transfected in HEK293 cells after 24 hrs by beta galactosidase luciferase reporter gene assay. The format is cell-based.

Data set [7] deals with T6, Nuclear receptor ROR-gamma (Homo sapiens, UniProt P51449).
T6 sequence (P51449 whole entry): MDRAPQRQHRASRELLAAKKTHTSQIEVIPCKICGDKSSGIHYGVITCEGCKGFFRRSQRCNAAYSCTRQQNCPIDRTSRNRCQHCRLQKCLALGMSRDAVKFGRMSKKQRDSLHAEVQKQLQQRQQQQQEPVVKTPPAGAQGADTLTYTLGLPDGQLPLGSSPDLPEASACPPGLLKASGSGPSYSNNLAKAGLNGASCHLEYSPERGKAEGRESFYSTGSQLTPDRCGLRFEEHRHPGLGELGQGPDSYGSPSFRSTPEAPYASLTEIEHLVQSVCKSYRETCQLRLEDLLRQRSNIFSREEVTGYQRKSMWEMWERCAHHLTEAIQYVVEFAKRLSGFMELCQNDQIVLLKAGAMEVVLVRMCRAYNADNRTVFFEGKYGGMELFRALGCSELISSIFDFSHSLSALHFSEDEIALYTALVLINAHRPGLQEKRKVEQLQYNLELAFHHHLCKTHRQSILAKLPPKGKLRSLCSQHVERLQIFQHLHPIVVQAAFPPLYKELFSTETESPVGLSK
The data set is described as follows: Inverse agonist activity at human RORgamma transfected in HEK293 cells after 24 hrs by beta galactosidase luciferase reporter gene assay. The format is cell-based.

The target in data set [8] is T7, Bile acid receptor (Homo sapiens, UniProt Q96RI1).
T7 sequence (Q96RI1 whole entry): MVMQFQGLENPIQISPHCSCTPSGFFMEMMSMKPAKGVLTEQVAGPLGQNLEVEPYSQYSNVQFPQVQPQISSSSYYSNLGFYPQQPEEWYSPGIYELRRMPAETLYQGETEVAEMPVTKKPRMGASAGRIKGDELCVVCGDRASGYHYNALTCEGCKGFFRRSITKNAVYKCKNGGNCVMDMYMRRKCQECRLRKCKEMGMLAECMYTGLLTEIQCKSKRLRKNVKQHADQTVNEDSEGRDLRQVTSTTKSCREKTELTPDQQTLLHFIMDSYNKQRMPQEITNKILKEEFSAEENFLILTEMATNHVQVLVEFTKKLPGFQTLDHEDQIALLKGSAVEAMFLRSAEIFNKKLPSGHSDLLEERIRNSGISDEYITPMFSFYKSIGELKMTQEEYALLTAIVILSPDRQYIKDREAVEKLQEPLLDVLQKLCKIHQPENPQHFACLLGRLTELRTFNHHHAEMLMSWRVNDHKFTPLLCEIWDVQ
The data set is described as follows: Partial agonist activity at human FXR transfected in HEK293 cells after 24 hrs by luciferase reporter gene assay. The format is cell-based.

The target of data set [9] is T8, Bile acid receptor (Homo sapiens) (UniProt Q96RI1).
T8 sequence (whole entry): T7 sequence (Q96RI1 whole entry)
The data set is described as follows: Partial agonist activity at human FXR transfected in HEK293 cells after 24 hrs by luciferase reporter gene assay relative to T0901317. The format is cell-based.

Data set [10] concerns the target T9, PXR (NR1I2) (Homo sapiens, UniProt O75469).
T9 sequence (O75469 whole entry): T3 sequence (O75469 whole entry)
The data set is described as follows: Agonist activity at human PXR transfected in HEK293 cells after 24 hrs by luciferase reporter gene assay relative to T0901317. To be noted: HEK293 cells transfected with human PXR, read-out: Efficacy. The format is cell-based.

Data set [11] deals with T7, Bile acid receptor. As to the kind of experiment: Agonist activity at human FXR transfected in HEK293 cells after 24 hrs by luciferase reporter gene assay. The format is cell-based.

In turn, `C[Si](C)(O)c1ccc(N(CC(F)(F)F)S(=O)(=O)c2ccccc2)cc1` had a logP in data set [1] of 4.23. The EC50 result in [2] was “Not Active”; in [3], “Not Active”; in data set [4] (read-out: EC50) it was 0.88 µM; in data set [8] it was 11 µM. The IC50 was found to be 53 µM in [5] (read-out: IC50), 60 µM in [6] (read-out: IC50) and 43 µM in data set [7] (read-out: IC50). The compound also showed an Efficacy in data set [9] of 23%. The Emax at 24 h in data set [10] is 61%.
In data set [1], `O=S(=O)(c1ccccc1)N(CC(F)(F)F)c1ccc(C(O)(C(F)(F)F)C(F)(F)F)cc1` [T091317] registered a logP of 5.38. Moreover, the IC50 result in data set [5] (hek293) and in data set [6] (hek293) was “Not Active” in each case.
Turning to `CC(C)(O)c1ccc(N(CC(F)(F)F)S(=O)(=O)c2ccccc2)cc1`, the logP in data set [1] came out at 3.7. Moreover, the EC50 result in [2], in [3], in data set [11] and in data set [4] (hek293) was “Not Active” in each case. Also, the IC50 entry in [5] (hek293), in [6] (hek293) and in data set [7] (hek293) was “Not Active” in each case.
Regarding `CO[C@H]1/C=C/O[C@@]2(C)Oc3c(C)c(O)c4c(O)c(c(/C=N/N5CCN(C)CC5)c(O)c4c3C2=O)NC(=O)/C(C)=C\C=C\[C@H](C)[C@H](O)[C@@H](C)[C@@H](O)[C@@H](C)[C@H](OC(C)=O)[C@@H]1C` [RIFAMPIN], in data set [10], the Emax at 24 h was 75%.
